Laboratory results published in patent publication US6369069B1 (Aventis Pharma Deutschland GmbH, priority 1998, dated 2002).

Test system: Na^+-dependent Cl^−/HCO3^− exchanger (NCBE)
Experiment: Inhibition of the Na+-dependent Cl−/HCO3− exchanger (NCBE) in human endothelial cells (pHi recovery, BCECF fluorescence, FLIPR)
Format: cell-based
Procedure, shortened: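 Fluorescence rise (FLIPR, 2 min, 35 °C) tracked pHi recovery in acid-loaded, BCECF-loaded ECV-304 cells after adding Na+- and HCO3−-containing buffer with 50 μM HOE 642 and graded compound doses. Inhibition was calculated against full-recovery and bicarbonate-free no-recovery controls.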

[1] = compound at 10 μM, sub-table with R7 substituent

Structure (SMILES)	Residual activity % of the NCBE at 10 μM (10 μM) [%]	Residual activity % of the NCBE at 10 μM [1] [%]
COC(=O)C(Cc1ccccc1)N(Cc1ccc(-c2ccccc2S(=O)(=O)NC#N)cc1)C(=O)Cc1c[nH]c2ccccc12 (stereo not shown) [Example 209]	56.2	–
N#CNS(=O)(=O)c1ccccc1-c1ccc(CN(CC2CCCO2)C(=O)CC2CCCCC2)cc1 (stereo not shown) [Example 358]	55.5	–
N#CNS(=O)(=O)c1ccccc1-c1ccc(CN(Cc2ccncc2)C(=O)Cc2cccs2)cc1 [Example 146]	69.8	–
COc1cccc(CN(Cc2ccc(-c3ccccc3S(=O)(=O)NC#N)cc2)C(=O)c2ccccc2Cl)c1 [Example 106]	98.9	–
N#CNS(=O)(=O)c1ccccc1-c1ccc(CN(Cc2cccs2)C(=O)CCC2CCCCC2)cc1 [Example 255]	61.0	–
Cc1ccc(-c2ccc(CN(Cc3cccs3)C(=O)Cc3cccs3)cc2)c(S(=O)(=O)NC#N)c1 [Example 517]	–	86.2
COc1cc(CN(Cc2ccc(-c3ccccc3S(=O)(=O)NC#N)cc2)C(=O)Cc2ccc(Cl)cc2)cc(OC)c1OC [Example 155]	34.2	–
CC(=O)N(CCc1cccs1)Cc1ccc(-c2ccccc2S(=O)(=O)NC#N)cc1 [Example 179]	78.3	–
COc1cccc(CN(Cc2ccc(-c3ccccc3S(=O)(=O)NC#N)cc2)C(=O)NC(C)C)c1 [Example 302]	80.4	–
Cc1ccc(-c2ccc(CN(Cc3ccc4ccccc4c3)C(=O)Cc3ccsc3)cc2)c(S(=O)(=O)NC#N)c1 [Example 539]	–	65.2
COC(=O)C(Cc1ccccc1)N(Cc1ccc(-c2ccccc2S(=O)(=O)NC#N)cc1)C(=O)CCCCc1cccs1 (stereo not shown) [Example 225]	88.1	–
N#CNS(=O)(=O)c1ccccc1-c1ccc(CN(Cc2ccc(C(F)(F)F)cc2)C(=O)C(c2ccccc2)c2ccccc2)cc1 [Example 119]	75.7	–
Cc1ccc(CN(Cc2ccc(-c3ccccc3S(=O)(=O)NC#N)cc2)C(=O)C(C(=O)Cc2ccccc2)c2ccccc2)cc1 (stereo not shown) [Example 135]	97.4	–
Cc1ccc(-c2ccc(CN(Cc3cccs3)C(=O)C(C)c3cccs3)cc2)c(S(=O)(=O)NC#N)c1 (stereo not shown) [Example 525]	–	74.0
C[C@@H](c1ccccc1)N(Cc1ccc(-c2ccccc2S(=O)(=O)NC#N)cc1)C(=O)c1cc2ccccc2s1 [Example 73]	61.0	–
N#CNS(=O)(=O)c1ccccc1-c1ccc(CN(CCCc2ccccc2)C(=O)CCCCc2cccs2)cc1 [Example 218]	87.1	–
N#CNS(=O)(=O)c1ccccc1-c1ccc(CN(Cc2cccc(Cl)c2)C(=O)Cc2cccs2)cc1 [Example 273]	32.4	–
COc1ccc(CC(=O)N(Cc2ccc(F)cc2)Cc2ccc(-c3ccccc3S(=O)(=O)NC#N)cc2)cc1 [Example 177]	64.4	–
N#CNS(=O)(=O)c1ccccc1-c1ccc(CN(Cc2ccc(Cl)cc2Cl)C(=O)Cc2ccccc2Br)cc1 [Example 276]	36.8	–
N#CNS(=O)(=O)c1ccccc1-c1ccc(CN(Cc2ccco2)C(=O)COc2ccccc2)cc1 [Example 164]	76.4	–
Cc1ccc(-c2ccc(CN(Cc3ccccc3F)C(=O)CC3CCCCC3)cc2)c(S(=O)(=O)NC#N)c1 [Example 551]	–	82.6
CC(C)=CCCC(C)=CCN(Cc1ccc(-c2ccccc2S(=O)(=O)NC#N)cc1)C(=O)CCOc1ccccc1 [Example 343]	48.1	–
COc1ccc(CN(Cc2ccc(-c3ccccc3S(=O)(=O)NC#N)cc2)C(=O)Cc2cccc(OC)c2)cc1 [Example 21]	52.3	–
N#CNS(=O)(=O)c1ccccc1-c1ccc(CN(Cc2cccc(Cl)c2)C(=O)NCc2ccccc2)cc1 [Example 307]	55.8	–
N#CNS(=O)(=O)c1ccccc1-c1ccc(CN(Cc2ccccn2)C(=O)Cc2c[nH]c3ccccc23)cc1 [Example 204]	52.4	–
